The values that follow come from patent EP4088745A1, “COMPOUND FOR THE DIAGNOSIS OF CANCER” (Eberhard Karls Universität Tübingen Medizinische Fakultät, priority 2021, dated 2022).

For data set [1], the system named is HCC1937 cells. The data set can be described thus: In vitro radiotracer uptake. Type of data set: cell-based, Human. The method, then: Human breast carcinoma cells (HCC1937, ACC513) were purchased from the German Collection of Microorganisms and Cell Cultures (DSMZ GmbH, Braunschweig, Germany) and cultured in Roswell Park Memorial Institute (RPMI) 1640 medium supplemented with 16 % fetal calf serum (FCS), 100 U/ml penicillin and 100 µg/ml streptomycin at 37°C under humid 5 % CO2 atmosphere. Absence of mycoplasma infection was confirmed by PCR analysis in monthly intervals.
After 30 min of incubation at 37°C, the cells were washed by vacuum filtration of medium through the plate (2×100 µl followed by 2×200 µl), the filters were transferred into tubes using a commercial punch kit (MAMP09608, Merck) and measured in a gamma counter (Wizard 2, Perkin-Elmer, Waltham, MA, USA). Experiments were performed in triplicates and the uptake was quantified as percent of added activity.

Data set [2] in a line: Serum stability analysis in mouse serum. Type of data set: in vitro ADME. The conditions noted are these: over a time course of 240 minutes; Fig 7 B.
The nature of data set [3]: Serum stability analysis in human serum. Type of data set: in vitro ADME. The conditions noted are these: over a time course of 240 minutes; Fig 7 B.
Data set [4] deals with HCC1937 xenograft. The data set is described as follows: PET imaging and ex vivo biodistribution in xenograft-bearing mice. As to the method:
All animal experiments were performed according to the German animal welfare act and approved by the local authorities (Regierungsprasidium Tübingen, R3/18). Animals were housed in individually ventilated cages (IVCs, 5 mice per cage) with bedding and enrichment, and food and water was provided ad libitum. Animals were kept under isoflurane anesthetic (1.5 % in pure oxygen, 1.5 l/min) during the experiments. 1×10^7 cells in 1:1 ice-cold Matrigel (Thermo Scientific) / PBS were injected subcutaneously in the right shoulder area of 7 week-old female NOD.CB17-Prkdc^scid/J mice (n = 5). […] The mice underwent a second, 10 min static PET scan 2 h post-injection (p.i.). Mice were sacrificed by cervical dislocation, the collected organs were weighed and the tissue uptake was determined by gamma-counting (WIZARD2, PerkinElmer). PET image reconstruction and correlation with MR images was performed with Inveon Acquisition Workplace and Inveon Research Workplace, respectively, using a user-defined dynamic framing and an ordered subset expectation maximization (OSEM3D) algorithm. Regions of interest (ROIs) were drawn according to the acquired MR images and co-registered with the PET data to obtain time-activity curves (TACs).
Statistical analyses were performed with GraphPad Prism 9 using non-parametric t-tests and are represented as mean value ± standard deviation. Blood half-life was calculated using a two-phase decay fit. P-values < 0.05 were considered statistically significant according to the software (*: p < 0.05, **: p < 0.01, ***: p < 0.001, ****: p < 0.0001).

Data set [5] relates to HCC1937 cells. The data set can be described thus: Competition assay of radiotracer uptake. Type of data set: cell-based, Human. The conditions noted are these: 1:2 serial dilution starting at 1µM; Fig. 11. As to the method:
Human breast carcinoma cells (HCC1937, ACC513) were purchased from the German Collection of Microorganisms and Cell Cultures (DSMZ GmbH, Braunschweig, Germany) and cultured in Roswell Park Memorial Institute (RPMI) 1640 medium supplemented with 16 % fetal calf serum (FCS), 100 U/ml penicillin and 100 µg/ml streptomycin at 37°C under humid 5 % CO2 atmosphere. Absence of mycoplasma infection was confirmed by PCR analysis in monthly intervals. […] After 30 min of incubation at 37°C, the cells were washed by vacuum filtration of medium through the plate (2×100 µl followed by 2×200 µl), the filters were transferred into tubes using a commercial punch kit (MAMP09608, Merck) and measured in a gamma counter (Wizard 2, Perkin-Elmer, Waltham, MA, USA). Experiments were performed in triplicates and the uptake was quantified as percent of added activity.

In the case of `Cn1ncnc1[C@H]1c2n[nH]c(=O)c3cc(F)cc(c23)N[C@@H]1c1ccc([18F])cc1` [[^18F] talazoparib, (8S,9R)-5-Fluoro-8-(4-^18fluorophenyl)-2,7,8,9-tetrahydro-9-(1-methyl-1H-1,2,4-triazol-5-yl)-3H-pyrido[4,3,2-de]phthalazin-3-one], the “uptake in HCC1937 cells” value in data set [1] (30 min incubation at 37°C, Fig. 7A) is listed as “high uptake”. For the same molecule, in data set [1] (blocking with olaparib or talazoparib, final concentration 25 µM), the “uptake blocked by excess olaparib and talazoparib” value was “blockable to baseline”. The “Stability in mouse serum” value in data set [2] is on record as “no radiometabolite was detected”. Besides, the “Stability in human serum” value in data set [3] was “no radiometabolite was detected”. Besides, in data set [4] (biodistribution analysis 2.5 h p.i., n = 5), the absolute xenograft uptake was 3.7 ± 0.71 %ID/g. The calculated blood half-life in data set [4] (blood TAC, two-phase decay fit) was 3.3 min. Besides, the “uptake in the brain tissue” value in data set [4] (mouse, in vivo) is “very low uptake”.
As for `Cn1ncnc1[C@H]1c2n[nH]c(=O)c3cc(F)cc(c23)N[C@@H]1c1ccc(F)cc1` [talazoparib, (8S,9R)-5-Fluoro-8-(4-fluorophenyl)-2,7,8,9-tetrahydro-9-(1-methyl-1H-1,2,4-triazol-5-yl)-3H-pyrido[4,3,2-de]phthalazin-3-one], in data set [5], the “blocking of the [^18F]talazoparib signal compared to olaparib” value is reported as “blocked the signal more effective”.
